≈ marks a conversion by molar mass, not a printed value. Entries after “also recorded” stand apart in the source; their conditions may differ.
Experiments:
Human recombinant MAO-A = target: T1, Human recombinant MAO-A (Homo sapiens, UniProt P21397); assay: MAO-A activity assay (kynuramine, 316 nm); type: biochemical
T1 construct: purchased Sigma-Aldrich
T1 sequence (P21397 1-527): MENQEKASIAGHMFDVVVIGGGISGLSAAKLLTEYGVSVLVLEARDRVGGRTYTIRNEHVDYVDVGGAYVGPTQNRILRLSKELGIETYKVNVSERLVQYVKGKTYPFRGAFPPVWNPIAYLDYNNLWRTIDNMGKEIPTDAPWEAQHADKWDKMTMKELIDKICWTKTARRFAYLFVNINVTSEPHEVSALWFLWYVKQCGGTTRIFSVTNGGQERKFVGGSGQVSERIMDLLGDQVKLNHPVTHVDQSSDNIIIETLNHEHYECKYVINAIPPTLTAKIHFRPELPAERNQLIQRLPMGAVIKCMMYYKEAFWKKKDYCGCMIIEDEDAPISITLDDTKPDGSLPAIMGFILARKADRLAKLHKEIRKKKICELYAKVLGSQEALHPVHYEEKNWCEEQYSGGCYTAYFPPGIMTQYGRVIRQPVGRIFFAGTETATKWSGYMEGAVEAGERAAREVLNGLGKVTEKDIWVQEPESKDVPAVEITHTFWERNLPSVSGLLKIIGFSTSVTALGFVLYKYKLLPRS
Experimental: (§1) Human recombinant MAO-A and MAO-B enzymes were used, and the activities were measured in a final volume of 500 µL of 100 mM sodium phosphate buffer of pH 7.2, and 0.06 mM kynuramine (MAO-A), or 0.3 mM benzylamine (MAO-B).
(§2) The inhibitory activities of the isolated compounds were analyzed at a concentration of 2 µg/mL.

Human recombinant MAO-B = target: T2, Human recombinant MAO-B (Homo sapiens, UniProt P27338); assay: MAO-B activity assay (benzylamine, 250 nm); type: biochemical
T2 construct: purchased Sigma-Aldrich
T2 sequence (P27338 1-520): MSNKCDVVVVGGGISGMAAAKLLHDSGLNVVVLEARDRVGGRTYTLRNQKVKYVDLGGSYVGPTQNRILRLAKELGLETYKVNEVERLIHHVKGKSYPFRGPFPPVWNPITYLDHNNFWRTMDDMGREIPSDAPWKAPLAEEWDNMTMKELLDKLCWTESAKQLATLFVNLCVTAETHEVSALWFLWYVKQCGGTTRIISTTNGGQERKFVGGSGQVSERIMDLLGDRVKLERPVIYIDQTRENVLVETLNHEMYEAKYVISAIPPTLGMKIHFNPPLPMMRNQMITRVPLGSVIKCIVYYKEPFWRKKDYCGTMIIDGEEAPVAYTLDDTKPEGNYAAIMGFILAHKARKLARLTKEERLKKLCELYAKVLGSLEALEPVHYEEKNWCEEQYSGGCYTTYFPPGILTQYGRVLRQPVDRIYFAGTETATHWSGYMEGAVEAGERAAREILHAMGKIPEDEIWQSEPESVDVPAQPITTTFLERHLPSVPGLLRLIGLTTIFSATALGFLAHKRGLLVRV
Experimental: as §1, §2

electric eel AChE = target: T3, electric eel AChE (Electrophorus electricus, UniProt O42275); assay: biochemical
T3 construct: purchased Sigma-Aldrich
T3 sequence (O42275 24-633): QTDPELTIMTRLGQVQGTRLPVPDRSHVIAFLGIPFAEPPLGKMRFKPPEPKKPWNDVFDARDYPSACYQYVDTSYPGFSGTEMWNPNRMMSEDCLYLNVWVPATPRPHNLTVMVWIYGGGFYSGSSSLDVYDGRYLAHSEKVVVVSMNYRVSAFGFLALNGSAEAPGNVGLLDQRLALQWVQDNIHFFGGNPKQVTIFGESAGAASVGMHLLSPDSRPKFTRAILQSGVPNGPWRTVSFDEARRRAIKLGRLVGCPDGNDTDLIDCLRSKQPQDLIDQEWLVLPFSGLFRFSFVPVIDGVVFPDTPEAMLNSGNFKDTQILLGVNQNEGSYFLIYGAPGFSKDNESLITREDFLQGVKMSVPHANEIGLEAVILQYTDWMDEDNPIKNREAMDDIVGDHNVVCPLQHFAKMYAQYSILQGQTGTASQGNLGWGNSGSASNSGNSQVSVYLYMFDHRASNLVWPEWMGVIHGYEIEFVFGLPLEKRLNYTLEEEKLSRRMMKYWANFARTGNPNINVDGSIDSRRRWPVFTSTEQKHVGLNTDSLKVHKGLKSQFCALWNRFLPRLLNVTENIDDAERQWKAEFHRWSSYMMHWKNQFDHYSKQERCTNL
Experimental: (§3) For cholinesterase activity assay, electric eel AChE and horse serum BChE were used. Activities were measured according to the Ellman method, with slight modifications, in 50 mM sodium phosphate buffer (pH 7.5). After adding cholinesterase enzymes and the inhibitor, pre-incubation was applied for 15 min. After adding 0.5 mM 5,5-dithiobis (2-nitrobenzoic acid) (DTNB) 0.5 mM for color development, 0.5 mM acetyl thiocholine iodide (ATCI) or 0.5 mM butyrylthiocholine iodide (BTCI) was used as a substrate.

horse serum BChE = target: T4, horse serum BChE (Equus caballus, UniProt P81908); assay: biochemical
T4 construct: electric eel AChE and horse serum BChE were used; purchased Sigma-Aldrich; host or cells: horse serum
T4 sequence (P81908 whole entry): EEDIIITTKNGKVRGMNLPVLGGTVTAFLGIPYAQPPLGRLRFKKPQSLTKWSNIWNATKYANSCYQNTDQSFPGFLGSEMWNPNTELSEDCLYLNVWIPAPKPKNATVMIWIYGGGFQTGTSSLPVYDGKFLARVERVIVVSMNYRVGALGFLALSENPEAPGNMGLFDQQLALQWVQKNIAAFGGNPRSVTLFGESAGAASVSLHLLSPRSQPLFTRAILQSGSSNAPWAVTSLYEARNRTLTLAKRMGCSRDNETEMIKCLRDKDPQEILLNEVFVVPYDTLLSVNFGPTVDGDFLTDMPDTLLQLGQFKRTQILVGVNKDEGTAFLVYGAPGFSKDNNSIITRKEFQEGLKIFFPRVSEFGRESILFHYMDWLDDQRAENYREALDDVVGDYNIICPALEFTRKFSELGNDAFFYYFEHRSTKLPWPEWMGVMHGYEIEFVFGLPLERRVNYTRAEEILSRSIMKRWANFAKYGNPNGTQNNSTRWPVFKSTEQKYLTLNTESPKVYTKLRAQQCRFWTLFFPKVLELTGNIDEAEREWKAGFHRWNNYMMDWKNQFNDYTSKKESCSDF
Experimental: as §3

BACE-1 = tested on: T5, BACE-1; assay: BACE-1 activity assay (detection kit, fluorescence); type: biochemical; details: isolated compounds, residual activity at 10 µg/mL (footnote a)
T5 construct: purchased Sigma-Aldrich
Experimental: BACE-1 assay was carried out using the BACE-1 activity detection kit and a fluorescence spectrometer (FS-2, Scinco, Seoul, Korea) by an excitation at 320 nm and an emission at 405 nm, after the reaction for 2 h at 37 °C [24].

[1] = DPPH antioxidant activity assay; details: isolated compounds, 100 µg/mL (footnote b)
Experimental: The antioxidant activity was measured at 100 µg/mL of the extracts using 0.1 mM 2,2-diphenyl-1-picrylhydrazyl (DPPH). After 15 min of pre-incubation, absorbance was measured at 517 nm.

MAO-B [2] = tested on: T6, MAO-B; assay: Inhibitor reversibility analysis by dialysis; type: biochemical, human; details: for MAO-B activity recovered after dialysis: ~2× IC50, dialyzed; for MAO-B activity before dialysis (undialyzed): ~2× IC50, undialyzed
T6 construct: purchased Sigma-Aldrich

[3] = tested on: MDCK (Madin–Darby canine kidney) cells; assay: Cytotoxicity, CCK-8 assay, MDCK; type: cell-based; details: 50 µM, 24 h treatment, CCK-8 3 h
Experimental: (§4) Cell viability was determined according to the cell counting kit (CCK)-8 assay method, using MDCK (Madin–Darby canine kidney) and HL-60 (human acute promyelocytic leukemia) cells, as normal and cancer cells, respectively. Briefly, MDCK and HL-60 cells were resuspended in Dulbecco’s modified eagle medium (DMEM) and Roswell Park Memorial Institute (RPMI)-1640, respectively, at 1 × 10^5 and 3 × 10^5 cells/mL, respectively. The cell suspension (100 µL) was added to each well of the 96-well plate and was incubated for 24 h at 5% CO2 and 37 °C. After incubation, 100 µL of the medium supplemented with 1, 3, 10, 30, and 50 µM of the compound was added to each well and incubated again. After 24 h, 100 µL of the solution was removed from each well, and CCK-8 (10 µL/well) was dispensed. After 2~4 h, the absorbance was detected at 450 nm with a microplate reader (Versamax, Molecular Devices, CA, USA).

[4] = tested on: HL-60 (human acute promyelocytic leukemia) cells; assay: Cytotoxicity, CCK-8 assay, HL-60; type: cell-based; details: 50 µM, 24 h treatment, CCK-8 4 h
Experimental: as §4

MAO-B [5] = target: T6, MAO-B; details: co-crystallized ligand of PDB 4A79; reference not given; cited from earlier work
liver or brain MAO = details: read-out: IC50 MAO enzyme; cited from earlier work
monoamine oxidase = target: monoamine oxidase; parameters: method as in PMID 27520493; details: cited from earlier work

Question: For `CC1CC(=O)c2c(O)cccc2O1` (centres unmarked) [HMC, 5-hydroxy-2-methyl-chroman-4-one], which IC50 (Human recombinant MAO-A) is on record?
Answer: Its IC50 is 14 ± 2.07 µM.

Question: And the remaining activity at 2 µg/mL (Human recombinant MAO-A; isolated compounds, 2 µg/mL, read-out: Residual Activity at 2 µg/mL (%) MAO-A)?
Answer: The remaining activity at 2 µg/mL was 55.8 ± 0.91%.

Question: And the IC50 (Human recombinant MAO-B)?
Answer: The IC50 was 3.23 ± 0.3 µM.

Question: What about the “Inhibition pattern (Lineweaver–Burk plots)” value (Human recombinant MAO-B; MAO-B) of the same molecule?
Answer: Its value is “competitive inhibitor”.

Question: And the remaining activity at 2 µg/mL (Human recombinant MAO-B; isolated compounds, 2 µg/mL, read-out: Residual Activity at 2 µg/mL (%) MAO-B)?
Answer: The remaining activity at 2 µg/mL was 13.2 ± 0.48%.

Question: What about the “Time-dependency: residual activities after preincubation” value (Human recombinant MAO-B; preincubation up to 30 min) of the same molecule?
Answer: Its value is “not changed significantly”.

Question: What about the “Selectivity for MAO-B compared to MAO-A” value (Human recombinant MAO-B; ratio of IC50 values) of the same molecule?
Answer: Its value is ~ 4 fold.

Question: What about the Ki (Human recombinant MAO-B; secondary plot of Lineweaver–Burk slopes vs inhibitor concentration) of the same molecule?
Answer: Its Ki is 896 nM.

Question: What about the IC50 (electric eel AChE) of the same molecule?
Answer: Its IC50 is over 40 µM.

Question: What about the remaining activity at 2 µg/mL (electric eel AChE; isolated compounds, 2 µg/mL, read-out: Residual Activity at 2 µg/mL (%) AChE) of the same molecule?
Answer: Its remaining activity at 2 µg/mL is 73 ± 1.13%.

Question: What about the IC50 (horse serum BChE) of the same molecule?
Answer: The IC50 was over 40 µM.

Question: And the remaining activity at 2 µg/mL (horse serum BChE; isolated compounds, 2 µg/mL, read-out: Residual Activity at 2 µg/mL (%) BChE)?
Answer: The remaining activity at 2 µg/mL was 83.8 ± 5.89%.

Question: And the “Residual Activity (%) BACE-1” value (BACE-1)?
Answer: Its value is 98.6 ± 2.04%.

Question: What about the “% Inhibition DPPH” value [1] of the same molecule?
Answer: Its value is 25.11 ± 2.12%.

Question: And the “Reversibility of MAO-B inhibition” value (MAO-B [2]; dialysis, ~2× IC50)?
Answer: The value was “reversible inhibitor”.

Question: What about the “MAO-B activity recovered after dialysis” value (MAO-B [2]) of the same molecule?
Answer: The value was 80.6%.

Question: And the “MAO-B activity before dialysis (undialyzed)” value (MAO-B [2])?
Answer: Its value is 23.1%.

Question: What about the “Cell viability, MDCK” value [3] of the same molecule?
Answer: The value was “No cytotoxicity; also recorded: not decreased at all”.

Question: And the “Cell viability, HL-60” value [4]?
Answer: Its value is “No cytotoxicity; also recorded: not decreased at all”.

Question: Which “MAO-B activity recovered after dialysis” value (MAO-B [2]) does the source give for `NCCNC(=O)c1ccc(Cl)cn1` [Lazabemide, reference compound] here?
Answer: Its value is 74.4%.

Question: And the “MAO-B activity before dialysis (undialyzed)” value (MAO-B [2])?
Answer: Its value is 26.0%.

Question: Which Ki (MAO-B [5]) does the source give for `CCc1ccc(CCOc2ccc(CC3SC(=O)NC3=O)cc2)nc1` (centres unmarked) [P1B, pioglitazone] here?
Answer: The Ki was 500 nM.

Question: With `C#CCN(C)Cc1ccccc1` [Pargyline, reference compound] as the molecule, how does the “MAO-B activity recovered after dialysis” value (MAO-B [2]) read?
Answer: The value was “not recovered at all”.

Question: With `CCCCCC(=O)c1c(O)cc2c(c1O)C(=O)c1c(O)cc(OC)cc1C2=O` [Solorinic acid] as the molecule, how does the IC50 (liver or brain MAO) read?
Answer: The IC50 was 14.3 µM.

Question: Which IC50 (monoamine oxidase) does the source give for `CC1Cc2cccc(O)c2C(=O)O1` (centres unmarked) [mellein, Mellein] here?
Answer: The IC50 was 50.2 µM.

Question: And the IC50 monoamine oxidase (monoamine oxidase)?
Answer: Its IC50 monoamine oxidase is 8.93 µg/mL (≈ 50.1 µM).

From publication PMC7911959, “Selective Inhibition of Human Monoamine Oxidase B by 5-hydroxy-2-methyl-chroman-4-one Isolated from an Endogenous Lichen Fungus Daldinia fissa” (Journal of Fungi, 2021)
